Literature values in patent publication US20220287347A1, “PEPTIDES FOR TREATING MUSCLE ATROPHY” (NURITAS LIMITED, priority 2019, published 2022).

Key:
[1] = binding to lipoproteins

SMILES | fraction unbound [1] | half-life in humans
C[C@@H](O)[C@@H]1NC(=O)[C@H](CCCCN)NC(=O)[C@@H](Cc2c[nH]c3ccccc23)NC(=O)[C@H](Cc2ccccc2)NC(=O)[C@@H](NC(=O)[C@H](N)Cc2ccccc2)CSSC[C@@H](C(=O)N[C@H](CO)[C@@H](C)O)NC1=O [octreotide] | 0.65 | about 100 min
NC(=O)CC[C@@H]1NC(=O)[C@H](Cc2ccccc2)NC(=O)[C@H](Cc2ccc(O)cc2)NC(=O)[C@@H](N)CSSC[C@@H](C(=O)N2CCC[C@H]2C(=O)N[C@@H](CCCN=C(N)N)C(=O)NCC(N)=O)NC(=O)[C@H](CC(N)=O)NC1=O [vasopressin] | – | 10 to 35 min
